The test system of data set [1] is Neutrophil. In words: Inhibition of immune complex-stimulated neutrophil oxidative metabolism in New Zealand white rabbit neutrophils assessed as ROS generation after 30 mins by lucigenin enhanced chemiluminescence assay. It is filed as functional, cell-based. The note with it: Oryctolagus cuniculus, 0.5 h; for pIC50: read-out: IC50; for IC50: read-out: pIC50 (converted).

The test system of data set [2] is Neutrophil. As to the kind of experiment: Inhibition of immune complex-stimulated neutrophil oxidative metabolism in New Zealand white rabbit neutrophils assessed as ROS generation after 30 mins by luminol enhanced chemiluminescence assay. It is filed as functional, cell-based. Conditions: Oryctolagus cuniculus, 0.5 h; for pIC50: read-out: IC50; for IC50: read-out: pIC50 (converted).

Data set [3] can be described thus: Cytotoxicity against New Zealand white rabbit neutrophils assessed as cell viability at 50 uM after 30 mins by trypan blue exclusion test. It is filed as cell-based, Oryctolagus cuniculus, Neutrophil. The note with it: read-out: Activity.
Data set [4] concerns Neutrophil. As to the kind of experiment: Inhibition of immune complex-stimulated neutrophil oxidative metabolism in New Zealand white rabbit neutrophils assessed as ROS generation at 50 uM after 30 mins by luminol enhanced chemiluminescence assay. It is filed as functional. The note with it: Oryctolagus cuniculus, 0.5 h.
Data set [5] deals with Neutrophil. As to the kind of experiment: Inhibition of immune complex-stimulated neutrophil oxidative metabolism in New Zealand white rabbit neutrophils assessed as ROS generation at 50 uM after 30 mins by lucigenin enhanced chemiluminescence assay. The note with it: Oryctolagus cuniculus, 0.5 h. It is filed as functional.
A short description of data set [6]: Cytotoxicity against New Zealand white rabbit neutrophils assessed as LDH release at 50 uM after 30 mins by spectrophotometry. It is filed as cell-based, Oryctolagus cuniculus. Conditions: neutrophil, 0.5 h. (LDH in the medium is a marker of cell lysis.)

Each structure is given as a SMILES string. pIC50: −log10 of the molar value.

By pIC50 is commonly meant −log10 of the IC50, conventionally taken in molar units. What is called inhibition is the change of the read-out against control, counted positive when it falls. As to `O=c1oc2ccc(O)cc2cc1-c1ccccc1O`, the pIC50 in the data set on Neutrophil [1] is 5.60; with Neutrophil [2], 5.55. In addition, the IC50 with Neutrophil [1] is 2.51 µM; in the data set with Neutrophil [2], 2.82 µM. For the same molecule, the viability at 0.5 h, 50 µM in data set [3] turned out to be 94.8%. For the same molecule, the inhibition at 50 µM was found to be 99% with Neutrophil [4] and 99.9% with Neutrophil [5]. Besides, the Activity in data set [6] is recorded as 9.8%.

For the molecule `O=c1oc2ccc(O)cc2cc1-c1ccc(O)c(O)c1`, the figures for the pIC50 in the data set on Neutrophil [1] and with Neutrophil [2] were 5.36 and 5.31, respectively. The IC50 in the data set with Neutrophil [1] was 4.47 µM; in the data set with Neutrophil [2] it was 4.9 µM. Further, the viability at 0.5 h, 50 µM in data set [3] was determined as 92.8%. In addition, the inhibition at 50 µM with Neutrophil [4] came to 99.2%; in the data set on Neutrophil [5] it was 98.7%. Further, the Activity in data set [6] came to 11.9%.

With `O=c1oc2cc(O)c(O)cc2cc1-c1ccc(O)c(O)c1`, the pIC50 with Neutrophil [1] was 5.28; with Neutrophil [2], 4.87. In addition, the values for the IC50 with Neutrophil [1] and with Neutrophil [2] were 5.25 µM and 13.5 µM, respectively. Besides, the viability at 0.5 h, 50 µM in data set [3] is 92%. In addition, the values for the inhibition at 50 µM in the data set with Neutrophil [4] and in the data set on Neutrophil [5] were 92.4% and 94.9%, respectively. For the same molecule, the Activity in data set [6] was determined as 10.5%.

Regarding `O=c1oc2cc(O)c(O)cc2cc1-c1ccc2c(c1)OCO2`, the pIC50 in the data set with Neutrophil [1] and with Neutrophil [2] was 6.15 throughout. The IC50 in the data set on Neutrophil [1] was 0.724 µM. In data set [3], the viability at 0.5 h, 50 µM was found to be 93.2%. For the same molecule, the inhibition at 50 µM was 99.8% in the data set with Neutrophil [4] and 99.6% with Neutrophil [5]. Further, the Activity in data set [6] is on record as 15.3%.

On to `COC(=O)Oc1cccc(-c2cc3cc(OC(=O)OC)ccc3oc2=O)c1`, for which the pIC50 is 5.16 in the data set with Neutrophil [1] and 4.66 in the data set with Neutrophil [2]. The IC50 in the data set with Neutrophil [1] is 6.92 µM; with Neutrophil [2], 21.9 µM. Moreover, the viability at 0.5 h, 50 µM in data set [3] is 94%. Besides, the inhibition at 50 µM came to 66.3% with Neutrophil [4] and 82.1% with Neutrophil [5]. Also, the Activity in data set [6] turned out to be 9.3%.

As for `O=c1oc2ccc(O)cc2cc1-c1ccccc1`, the pIC50 is 5.10 in the data set with Neutrophil [1] and below 4.30 in the data set on Neutrophil [2]. Also, the IC50 in the data set with Neutrophil [1] is 7.94 µM. Besides, the viability at 0.5 h, 50 µM in data set [3] came to 92.3%. For the same molecule, the inhibition at 50 µM in the data set on Neutrophil [4] was determined as 21.8%; with Neutrophil [5], 83.5%. Also, the Activity in data set [6] was found to be 10.7%.

Consider `COC(=O)Oc1ccc2oc(=O)c(-c3ccc4c(c3)OCO4)cc2c1`, for which the pIC50 in the data set with Neutrophil [1] was 5.27; in the data set on Neutrophil [2], below 4.30. Also, in the data set on Neutrophil [1], the IC50 was 5.37 µM. The viability at 0.5 h, 50 µM in data set [3] came out at 95.5%. Moreover, the inhibition at 50 µM is 13.7% in the data set on Neutrophil [4] and 68% with Neutrophil [5]. In data set [6], the Activity worked out at 11.4%.

For `COC(=O)Oc1cc2cc(-c3ccc4c(c3)OCO4)c(=O)oc2cc1OC(=O)OC`, the pIC50 in the data set on Neutrophil [1] and with Neutrophil [2] was 6.15 throughout. The IC50 was 0.692 µM in the data set with Neutrophil [1] and 0.661 µM in the data set on Neutrophil [2]. For the same molecule, the viability at 0.5 h, 50 µM in data set [3] amounted to 95%. Besides, the inhibition at 50 µM in the data set on Neutrophil [4] was found to be 99.4%; in the data set on Neutrophil [5] it was 99%. Further, the Activity in data set [6] stood at 11.9%.

Consider `O=c1oc2ccccc2cc1-c1ccc2c(c1)OCO2`, for which the pIC50 in the data set with Neutrophil [1] and in the data set with Neutrophil [2] was below 4.30 each time. In data set [3], the viability at 0.5 h, 50 µM is 96%. For the same molecule, the inhibition at 50 µM in the data set with Neutrophil [4] worked out at 10.1%; with Neutrophil [5], 5.7%. Further, the Activity in data set [6] is 11.9%.

`COC(=O)Oc1ccc2oc(=O)c(-c3ccccc3)cc2c1`: the results for the pIC50 in the data set on Neutrophil [1] and with Neutrophil [2] were 5.13 and 4.51, respectively. Besides, the IC50 is 7.41 µM in the data set with Neutrophil [1] and 30.9 µM in the data set on Neutrophil [2]. The viability at 0.5 h, 50 µM in data set [3] was 93.8%. In addition, the inhibition at 50 µM was 50.5% in the data set with Neutrophil [4] and 80.5% in the data set with Neutrophil [5]. In addition, in data set [6], the Activity is reported as 11.3%.

In the case of `O=c1oc2ccc(O)cc2cc1-c1cccc(O)c1`, the pIC50 in the data set with Neutrophil [1] was 5.28; in the data set on Neutrophil [2] it was below 4.30. Moreover, the IC50 with Neutrophil [1] was 5.25 µM. The viability at 0.5 h, 50 µM in data set [3] stood at 93.8%. Further, the inhibition at 50 µM came to 31.7% with Neutrophil [4] and 94.1% with Neutrophil [5]. Further, the Activity in data set [6] was 11.2%.

As to `COC(=O)Oc1ccc(-c2cc3cc(OC(=O)OC)c(OC(=O)OC)cc3oc2=O)cc1OC(=O)OC`, the pIC50 in the data set with Neutrophil [1] and in the data set on Neutrophil [2] was 6.40 throughout. The IC50 in the data set with Neutrophil [1] was 0.363 µM; in the data set with Neutrophil [2] it was 0.389 µM. The viability at 0.5 h, 50 µM in data set [3] turned out to be 88.8%. Further, the inhibition at 50 µM with Neutrophil [4] and with Neutrophil [5] was 99.9% throughout. In addition, the Activity in data set [6] was 20.7%.

In the case of `O=c1oc2ccc(O)cc2cc1-c1ccc(O)cc1`, the pIC50 in the data set on Neutrophil [1] was 5.37; in the data set with Neutrophil [2] it was 4.53. The values for the IC50 with Neutrophil [1] and with Neutrophil [2] were 4.37 µM and 29.5 µM, respectively. For the same molecule, the viability at 0.5 h, 50 µM in data set [3] was determined as 89.5%. Besides, the inhibition at 50 µM stood at 69.8% in the data set with Neutrophil [4] and 95.7% in the data set with Neutrophil [5]. For the same molecule, the Activity in data set [6] turned out to be 18.3%.

For `COC(=O)Oc1ccc2oc(=O)c(-c3ccc(OC(=O)OC)c(OC(=O)OC)c3)cc2c1`, the pIC50 in the data set on Neutrophil [1] was 5.74; with Neutrophil [2], 5.70. In addition, the IC50 in the data set with Neutrophil [1] was 1.78 µM; in the data set on Neutrophil [2] it was 2.04 µM. Moreover, the viability at 0.5 h, 50 µM in data set [3] worked out at 93.3%. The results for the inhibition at 50 µM with Neutrophil [4] and in the data set on Neutrophil [5] were 92.3% and 97.5%, respectively. In addition, in data set [6], the Activity was determined as 9.3%.

For the molecule `COC(=O)Oc1ccc(-c2cc3cc(OC(=O)OC)ccc3oc2=O)cc1`, the values for the pIC50 in the data set on Neutrophil [1] and in the data set with Neutrophil [2] were 5.40 and 4.56, respectively. Further, the IC50 in the data set with Neutrophil [1] was 3.98 µM; in the data set with Neutrophil [2], 27.5 µM. Also, the viability at 0.5 h, 50 µM in data set [3] is 92.5%. In addition, the inhibition at 50 µM with Neutrophil [4] amounted to 60.3%; in the data set on Neutrophil [5] it was 92.5%. The Activity in data set [6] is 11.6%.

As for `COC(=O)Oc1ccc2oc(=O)c(-c3ccccc3OC(=O)OC)cc2c1`, the negative logarithm of the IC50 (pIC50) is 5.59 with Neutrophil [1] and 5.54 in the data set with Neutrophil [2]. The IC50 is 2.57 µM in the data set with Neutrophil [1] and 2.88 µM in the data set with Neutrophil [2]. In addition, the viability at 0.5 h, 50 µM in data set [3] is 90.3%. Moreover, the inhibition at 50 µM in the data set with Neutrophil [4] worked out at 94.6%; in the data set with Neutrophil [5], 96.5%. In addition, the Activity in data set [6] is given as 14.6%.

Turning to `COC(=O)Oc1ccc2cc(-c3ccc4c(c3)OCO4)c(=O)oc2c1`, the pIC50 in the data set with Neutrophil [1] is 5.14; in the data set on Neutrophil [2] it was below 4.30. Also, the IC50 in the data set with Neutrophil [1] was at least 7.24 µM. For the same molecule, in data set [3], the viability at 0.5 h, 50 µM was 94.3%. The inhibition at 50 µM with Neutrophil [4] came out at 7.9%; in the data set on Neutrophil [5] it was 67.1%. Also, the Activity in data set [6] was determined as 13.8%.

For the molecule `O=c1oc2cc(O)ccc2cc1-c1ccc2c(c1)OCO2`, the pIC50 in the data set on Neutrophil [1] was 5.07; in the data set on Neutrophil [2] it was below 4.30. The IC50 in the data set with Neutrophil [1] was 8.51 µM. Besides, the viability at 0.5 h, 50 µM in data set [3] amounted to 94.3%. The inhibition at 50 µM is 17.5% in the data set on Neutrophil [4] and 79.4% with Neutrophil [5]. Besides, in data set [6], the Activity is on record as 11.1%.

`O=c1oc2ccc(O)cc2cc1-c1ccc2c(c1)OCO2`: the pIC50 was 5.25 with Neutrophil [1] and below 4.30 in the data set on Neutrophil [2]. In addition, the IC50 in the data set on Neutrophil [1] was 5.62 µM. Also, the viability at 0.5 h, 50 µM in data set [3] turned out to be 93.8%. The inhibition at 50 µM in the data set on Neutrophil [4] was 23.2%; with Neutrophil [5] it was 83.5%. Moreover, in data set [6], the Activity is recorded as 9%.

Consider `O=c1oc2ccccc2cc1-c1ccccc1`, for which the pIC50 in the data set on Neutrophil [1] and in the data set on Neutrophil [2] was below 4.30 throughout. Also, the viability at 0.5 h, 50 µM in data set [3] was 90.3%. Also, the inhibition at 50 µM in the data set on Neutrophil [4] was determined as 9%; in the data set with Neutrophil [5] it was 27.9%. The Activity in data set [6] came out at 17.1%.

For the molecule `O=c1c(O)c(-c2ccc(O)c(O)c2)oc2cc(O)cc(O)c12` [QUERCETIN], the pIC50 in the data set on Neutrophil [1] was 5.33; in the data set on Neutrophil [2], 5.62. Also, the viability at 0.5 h, 50 µM in data set [3] is 93%. Besides, the inhibition at 50 µM in the data set on Neutrophil [4] and in the data set on Neutrophil [5] was 99.9% throughout. For the same molecule, the Activity in data set [6] was 10.9%.

For the origin of these results see ChEMBL document CHEMBL1156679, “Inhibition of immune complex-mediated neutrophil oxidative metabolism: a pharmacophore model for 3-phenylcoumarin derivatives using GRIND-based 3D-QSAR and 2D-QSAR procedures” (Eur J Med Chem, 2008).
